Values after ≈ are worked out from the molar mass of the structure shown.
What was measured:
Staphylococcus aureus [1] = test: Antibacterial activity against Staphylococcus aureus 503 measured after 24 hrs by two-fold serial dilution method; assay type: functional; conditions: Staphylococcus aureus, 503, 24 h
Staphylococcus aureus [2] = test: Antibacterial activity against Staphylococcus aureus 4220 measured after 24 hrs by two-fold serial dilution method; assay type: functional; conditions: Staphylococcus aureus, 4220, 24 h
Staphylococcus aureus [3] = test: Antibacterial activity against Staphylococcus aureus 209 measured after 24 hrs by two-fold serial dilution method; assay type: functional; conditions: Staphylococcus aureus, 209, 24 h
Streptococcus mutans = test: Antibacterial activity against Streptococcus mutans 3065 measured after 24 hrs by two-fold serial dilution method; assay type: functional; conditions: Streptococcus mutans, 3065, 24 h
Escherichia coli [4] = test: Antibacterial activity against Escherichia coli 1924 measured after 24 hrs by two-fold serial dilution method; assay type: functional; conditions: Escherichia coli, 1924, 24 h
Escherichia coli [5] = test: Antibacterial activity against Escherichia coli 1356 measured after 24 hrs by two-fold serial dilution method; assay type: functional; conditions: Escherichia coli, 1356, 24 h
Salmonella typhimurium [6] = test: Antibacterial activity against Salmonella typhimurium 1926 measured after 24 hrs by two-fold serial dilution method; assay type: functional, Salmonella enterica subsp. enterica serovar Typhimurium; conditions: Salmonella enterica, 1926, 24 h
Pseudomonas aeruginosa = test: Antibacterial activity against Pseudomonas aeruginosa 2742 measured after 24 hrs by two-fold serial dilution method; assay type: functional; conditions: Pseudomonas aeruginosa, 2742, 24 h
Candida albicans [7] = test: Antifungal activity against Candida albicans 7535 measured after 24 hrs by two-fold serial dilution method; assay type: functional; conditions: Candida albicans, 7535, 24 h
Staphylococcus aureus [8] = test: Antibacterial activity against methicillin-resistant Staphylococcus aureus 3167 measured after 24 hrs by two-fold serial dilution method; assay type: functional; conditions: Staphylococcus aureus, 3167, 24 h
Staphylococcus aureus [9] = test: Antibacterial activity against methicillin-resistant Staphylococcus aureus 3506 measured after 24 hrs by two-fold serial dilution method; assay type: functional; conditions: Staphylococcus aureus, 3506, 24 h
Staphylococcus aureus [10] = test: Antibacterial activity against quinolone-resistant Staphylococcus aureus 3505 measured after 24 hrs by two-fold serial dilution method; assay type: functional; conditions: Staphylococcus aureus, 3505, 24 h
Staphylococcus aureus [11] = test: Antibacterial activity against quinolone-resistant Staphylococcus aureus 3519 measured after 24 hrs by two-fold serial dilution method; assay type: functional; conditions: Staphylococcus aureus, 3519, 24 h
Mus musculus = test: Antiinflammatory activity in mouse assessed as inhibition of xylene-induced ear edema at 100 mg/kg, ip administered 30 mins before xylene challenge measured after 30 mins relative to DMSO-control; assay type: functional
Salmonella typhimurium [12] = test: Potency index, ratio of gatifloxacin MIC to compound MIC against Salmonella typhimurium 1926; assay type: functional, Salmonella enterica subsp. enterica serovar Typhimurium
Salmonella typhimurium [13] = test: Potency index, ratio of moxifloxin MIC to compound MIC against Salmonella typhimurium 1926; assay type: functional, Salmonella enterica subsp. enterica serovar Typhimurium
Candida albicans [14] = test: Potency index, ratio of fluconazole MIC to compound MIC against Candida albicans 7535; assay type: functional

| SMILES | MIC (Staphylococcus aureus [1]) | MIC (Staphylococcus aureus [2]) | MIC (Staphylococcus aureus [3]) | MIC (Streptococcus mutans) | MIC (Escherichia coli [4]) | MIC (Escherichia coli [5]) | MIC (Salmonella typhimurium [6]) | MIC (Pseudomonas aeruginosa) | MIC (Candida albicans [7]) | MIC (Staphylococcus aureus [8]) | MIC (Staphylococcus aureus [9]) | MIC (Staphylococcus aureus [10]) | MIC (Staphylococcus aureus [11]) | inhibition in vivo at 100 mg/kg (Mus musculus) | Ratio (Salmonella typhimurium [12]) | Ratio (Salmonella typhimurium [13]) | Ratio (Candida albicans [14]) |
| --- | --- | --- | --- | --- | --- | --- | --- | --- | --- | --- | --- | --- | --- | --- | --- | --- | --- |
| O=C(N/N=C/c1ccc(/C=C/C(=O)c2ccccc2Br)cc1)c1ccncc1 | > 64 µg/mL | 64 µg/mL (≈ 147 µM) | 64 µg/mL (≈ 147 µM) | 32 µg/mL (≈ 73.7 µM) | > 64 µg/mL | > 64 µg/mL | > 64 µg/mL | > 64 µg/mL | 64 µg/mL (≈ 147 µM) | > 64 µg/mL | > 64 µg/mL | > 64 µg/mL | > 64 µg/mL | 48.7% |  |  |  |
| COc1ccc(C(=O)/C=C/c2ccc(/C=N/NC(=N)N)cc2)cc1 | 16 µg/mL (≈ 49.6 µM) | 16 µg/mL (≈ 49.6 µM) | 16 µg/mL (≈ 49.6 µM) | 8 µg/mL (≈ 24.8 µM) | 16 µg/mL (≈ 49.6 µM) | 32 µg/mL (≈ 99.3 µM) | 2 µg/mL (≈ 6.2 µM) | 8 µg/mL (≈ 24.8 µM) | 8 µg/mL (≈ 24.8 µM) | 16 µg/mL (≈ 49.6 µM) | 8 µg/mL (≈ 24.8 µM) | 16 µg/mL (≈ 49.6 µM) | 16 µg/mL (≈ 49.6 µM) | 57.2% |  |  |  |
| O=C(/C=C/c1ccc(/C=N/NC(=O)c2ccncc2)cc1)c1ccc(Br)cc1 | > 64 µg/mL | > 64 µg/mL | > 64 µg/mL | > 64 µg/mL | > 64 µg/mL | > 64 µg/mL | > 64 µg/mL | > 64 µg/mL | > 64 µg/mL | > 64 µg/mL | 64 µg/mL (≈ 147 µM) | > 64 µg/mL | 64 µg/mL (≈ 147 µM) | 55.7% |  |  |  |
| N=C(N)N/N=C/c1ccc(/C=C/C(=O)c2ccc(Cl)cc2)cc1 | 4 µg/mL (≈ 12.2 µM) | 2 µg/mL (≈ 6.12 µM) | 4 µg/mL (≈ 12.2 µM) | 4 µg/mL (≈ 12.2 µM) | 2 µg/mL (≈ 6.12 µM) | 8 µg/mL (≈ 24.5 µM) | 4 µg/mL (≈ 12.2 µM) | 2 µg/mL (≈ 6.12 µM) | 4 µg/mL (≈ 12.2 µM) | 4 µg/mL (≈ 12.2 µM) | 2 µg/mL (≈ 6.12 µM) | 4 µg/mL (≈ 12.2 µM) | 8 µg/mL (≈ 24.5 µM) | 56.4% |  |  |  |
| Cc1ccc(C(=O)/C=C/c2ccc(/C=N/NC(=O)c3ccncc3)cc2)c(C)c1 | > 64 µg/mL | > 64 µg/mL | > 64 µg/mL | > 64 µg/mL | > 64 µg/mL | > 64 µg/mL | > 64 µg/mL | > 64 µg/mL | > 64 µg/mL | 64 µg/mL (≈ 167 µM) | 64 µg/mL (≈ 167 µM) | > 64 µg/mL | > 64 µg/mL | 58.5% |  |  |  |
| N=C(N)N/N=C/c1ccc(/C=C/C(=O)c2cccc(Br)c2)cc1 | 2 µg/mL (≈ 5.39 µM) | 2 µg/mL (≈ 5.39 µM) | 2 µg/mL (≈ 5.39 µM) | 2 µg/mL (≈ 5.39 µM) | 2 µg/mL (≈ 5.39 µM) | 8 µg/mL (≈ 21.5 µM) | 1 µg/mL (≈ 2.69 µM) | 2 µg/mL (≈ 5.39 µM) | 2 µg/mL (≈ 5.39 µM) | 2 µg/mL (≈ 5.39 µM) | 2 µg/mL (≈ 5.39 µM) | 2 µg/mL (≈ 5.39 µM) | 4 µg/mL (≈ 10.8 µM) | 49.7% | 1 - 2 | 1 | 2 |
| O=C(/C=C/c1ccc(/C=N/NC(=O)c2ccncc2)cc1)c1cccc(Br)c1 | 64 µg/mL (≈ 147 µM) | 64 µg/mL (≈ 147 µM) | 64 µg/mL (≈ 147 µM) | > 64 µg/mL | > 64 µg/mL | > 64 µg/mL | > 64 µg/mL | > 64 µg/mL | > 64 µg/mL | 32 µg/mL (≈ 73.7 µM) | 32 µg/mL (≈ 73.7 µM) | 64 µg/mL (≈ 147 µM) | 64 µg/mL (≈ 147 µM) | 14% |  |  |  |
| Cc1ccc(C(=O)/C=C/c2ccc(/C=N/NC(=O)c3ccccc3)cc2)c(C)c1 | > 64 µg/mL | > 64 µg/mL | > 64 µg/mL | > 64 µg/mL | > 64 µg/mL | > 64 µg/mL | > 64 µg/mL | > 64 µg/mL | > 64 µg/mL | > 64 µg/mL | > 64 µg/mL | > 64 µg/mL | > 64 µg/mL | 0.18% |  |  |  |
| O=C(N/N=C/c1ccc(/C=C/C(=O)c2ccc(Cl)cc2Cl)cc1)c1ccncc1 | 16 µg/mL (≈ 37.7 µM) | 8 µg/mL (≈ 18.9 µM) | 16 µg/mL (≈ 37.7 µM) | 32 µg/mL (≈ 75.4 µM) | 32 µg/mL (≈ 75.4 µM) | 32 µg/mL (≈ 75.4 µM) | > 64 µg/mL | > 64 µg/mL | 4 µg/mL (≈ 9.43 µM) | 16 µg/mL (≈ 37.7 µM) | 16 µg/mL (≈ 37.7 µM) | 16 µg/mL (≈ 37.7 µM) | 16 µg/mL (≈ 37.7 µM) | 83.8% |  |  |  |
| O=C(/C=C/c1ccc(/C=N/NC(=O)c2ccncc2)cc1)c1ccc(F)cc1 | 64 µg/mL (≈ 171 µM) | 32 µg/mL (≈ 85.7 µM) | 32 µg/mL (≈ 85.7 µM) | 64 µg/mL (≈ 171 µM) | 64 µg/mL (≈ 171 µM) | 64 µg/mL (≈ 171 µM) | > 64 µg/mL | > 64 µg/mL | > 64 µg/mL | 32 µg/mL (≈ 85.7 µM) | 32 µg/mL (≈ 85.7 µM) | 32 µg/mL (≈ 85.7 µM) | 32 µg/mL (≈ 85.7 µM) | 51.1% |  |  |  |
| N=C(N)N/N=C/c1ccc(/C=C/C(=O)c2cccc(Cl)c2)cc1 | 4 µg/mL (≈ 12.2 µM) | 4 µg/mL (≈ 12.2 µM) | 4 µg/mL (≈ 12.2 µM) | 4 µg/mL (≈ 12.2 µM) | 4 µg/mL (≈ 12.2 µM) | 8 µg/mL (≈ 24.5 µM) | 2 µg/mL (≈ 6.12 µM) | 4 µg/mL (≈ 12.2 µM) | 4 µg/mL (≈ 12.2 µM) | 4 µg/mL (≈ 12.2 µM) | 2 µg/mL (≈ 6.12 µM) | 4 µg/mL (≈ 12.2 µM) | 8 µg/mL (≈ 24.5 µM) | 80.7% |  |  |  |
| O=C(N/N=C/c1ccc(/C=C/C(=O)c2ccccc2Cl)cc1)c1cccc(Cl)c1 | 32 µg/mL (≈ 75.6 µM) | 32 µg/mL (≈ 75.6 µM) | 32 µg/mL (≈ 75.6 µM) | > 64 µg/mL | > 64 µg/mL | > 64 µg/mL | > 64 µg/mL | > 64 µg/mL | > 64 µg/mL | 32 µg/mL (≈ 75.6 µM) | 32 µg/mL (≈ 75.6 µM) | 32 µg/mL (≈ 75.6 µM) | 32 µg/mL (≈ 75.6 µM) | 43% |  |  |  |
| O=C(N/N=C/c1ccc(/C=C/C(=O)c2ccccc2F)cc1)c1ccncc1 | 64 µg/mL (≈ 171 µM) | 64 µg/mL (≈ 171 µM) | 64 µg/mL (≈ 171 µM) | 16 µg/mL (≈ 42.9 µM) | 64 µg/mL (≈ 171 µM) | 64 µg/mL (≈ 171 µM) | > 64 µg/mL | > 64 µg/mL | > 64 µg/mL | 64 µg/mL (≈ 171 µM) | 64 µg/mL (≈ 171 µM) | 64 µg/mL (≈ 171 µM) | 64 µg/mL (≈ 171 µM) | 51.2% |  |  |  |

— ChEMBL document CHEMBL3868618, “Synthesis and biological evaluation of chalcone derivatives containing aminoguanidine or acylhydrazone moieties” (Bioorg Med Chem Lett, 2016)
